Holding throughout (type): biochemical
In one assay the target is T1, Pim-1 (Homo sapiens, UniProt P11309).
T1 construct: His6-labelled recombinant full-length human Pim-1, Pim-2 or Pim-3 protein; His6; made in house
As to the kind of experiment: TR-FRET assay, Pim-1 kinase (phosphorylation of Bad Ser112). Particulars: TR-FRET; ATP 40 μM; read-out: IC50 Pim1. The procedure: (§1) In order to determine the inhibition of activation of Pim kinases, the compounds of the invention are tested in accordance with a routinely used in vitro TR-FRET assay (Time-Resolved Fluorescence Resonance Energy Transfer). […] For the assay, the following reagents are used:
(§2) Pim kinase—His6-labelled recombinant full-length human Pim-1, Pim-2 or Pim-3 protein (prepared according to J. Mol. Biol. (2005) 348, 183-193); Bad—His6-labelled recombinant full-length human Bad protein (prepared according to J. Mol. Biol. (2005) 348, 183-193); α-His6-APC—murine monoclonal antibody conjugated to allophycocyanin SureLight™ directed against the His6 label (Perkin-Elmer, No. AD0059H, Waltham, Mass., United States); • β-P˜Bad-Eu—murine monoclonal antibody (Cell Signaling Technology #9296B, Danvers, Mass., United States) directed against phosphoBad (Ser112) (7E11) custom-labelled by Perkin-Elmer with the reagent LANCE™ Eu-W1024.
(§3) The assay is based on Perkin-Elmer's LANCE™ technology: the Eu-labelled antibody binds to phospho-Ser112 and generates a TR-FRET signal by interaction with the APC-labelled antibody directed against His6, bound to the His6 label of Bad. The TR-FRET signal is detected using a SpectraMax M5 plate reader (Molecular Devices) with the following settings: λex=340 nm, λem1=615 nm, λem2=665 nm. The ratio of the fluorescence signal at 665 nm to the fluorescence signal at 615 nm is used as the signal reading for the IC50 (calculation is based on the 4-parameter logistic model). The assay is performed in a 384-well format; the liquid manipulations are performed using a Beckman 3000 liquid manipulations station. The test compounds are tested at 10 concentration points in duplicate; the highest compound concentration is typically equal to 30 μM. The ATP concentration is equal to 40 μM, which is equivalent to the apparent KM value.

The target in a further assay is T2, Pim-2 (Homo sapiens, UniProt Q9P1W9).
T2 construct: His6-labelled recombinant full-length human Pim-1, Pim-2 or Pim-3 protein; His6; made in house
T2 sequence (Q9P1W9 whole entry): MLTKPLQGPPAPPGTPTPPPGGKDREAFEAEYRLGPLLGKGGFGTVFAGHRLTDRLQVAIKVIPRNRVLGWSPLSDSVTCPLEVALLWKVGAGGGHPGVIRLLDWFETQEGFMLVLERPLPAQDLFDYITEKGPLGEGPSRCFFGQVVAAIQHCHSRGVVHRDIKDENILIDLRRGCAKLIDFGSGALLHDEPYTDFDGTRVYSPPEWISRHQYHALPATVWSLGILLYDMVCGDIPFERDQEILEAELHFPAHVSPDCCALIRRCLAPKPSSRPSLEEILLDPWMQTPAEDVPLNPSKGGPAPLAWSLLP
Kind of assay: TR-FRET assay, Pim-2 kinase (phosphorylation of Bad Ser112). Particulars: TR-FRET; ATP 40 μM; read-out: IC50 Pim2. The procedure:
as §1, §2, §3
Background: TR-FRET usually uses a lanthanide donor and a delayed reading to cut background.

The target in another assay is T3, Pim-3 (Homo sapiens, UniProt Q86V86).
T3 construct: His6-labelled recombinant full-length human Pim-1, Pim-2 or Pim-3 protein; His6; made in house
As to the kind of experiment: TR-FRET assay, Pim-3 kinase (phosphorylation of Bad Ser112). Particulars: TR-FRET; ATP 40 μM; read-out: IC50 Pim3. The procedure:
as §1, §2, §3

Where only a bound is given, the exact number is not on record here.

Here are results for 24 compounds from patent US20110178053A1, “AZACARBOLINE DERIVATIVES, PREPARATION METHOD THEREOF AND THERAPEUTIC USE OF SAME” (SANOFI-AVENTIS, priority 2008, published 2011).

As a reminder, the IC50 is the point on the concentration scale where inhibition reaches its midpoint.

T1 sequence (P11309 whole entry): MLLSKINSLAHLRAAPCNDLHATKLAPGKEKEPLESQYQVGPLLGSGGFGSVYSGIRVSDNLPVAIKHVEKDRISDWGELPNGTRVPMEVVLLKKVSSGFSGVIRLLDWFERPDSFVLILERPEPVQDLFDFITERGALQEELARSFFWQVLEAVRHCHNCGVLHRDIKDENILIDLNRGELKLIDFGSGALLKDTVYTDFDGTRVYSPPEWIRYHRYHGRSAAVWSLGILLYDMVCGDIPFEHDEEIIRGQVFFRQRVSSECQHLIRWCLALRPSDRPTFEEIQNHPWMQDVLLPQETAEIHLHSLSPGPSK

For the compound `CCOc1ncccc1-c1c(F)cnc2[nH]c3cnc(-c4cccnc4)cc3c12` [Example 64, 4-(2-ethoxypyrid-3-yl)-3-fluoro-6-(pyrid-3-yl)-9H-pyrrolo[2,3-b:5,4-c′]dipyridine], the IC50 at Pim-1 was 100 to 1000 nM; at Pim-2, over 5000 nM; at Pim-3, 1000 to 5000 nM.
In the same order, the values of `O=C(O)CCC(=O)Nc1cccc(-c2c(F)cnc3[nH]c4cnc(-c5cccnc5)cc4c23)c1` [Example 65, acide 4-({3-[3-fluoro-6-(pyrid-3-yl)-9H-pyrrolo[2,3-b:5,4-c′]-dipyrid-4-yl]-phenyl}amino)-4-oxobutanoic acid] are 100 to 1000 nM, over 5000 nM and 1000 to 5000 nM.
On to `Cn1nccc1-c1c(F)cnc2[nH]c3cnc(-c4cccnc4)cc3c12` [Example 67, 3-fluoro-4-(1-methyl-1H-pyrazol-5-yl)-6-(pyrid-3-yl)-9H-pyrrolo[2,3-b:5,4-c']-dipyridine], for which the figures for the IC50 on Pim-1, on Pim-2 and at Pim-3 were 1000 to 5000 nM, over 5000 nM and 1000 to 5000 nM, respectively.
`CC(C)C(=O)Nc1ccc(-c2c(F)cnc3[nH]c4cnc(-c5cccnc5)cc4c23)cc1` [Example 68, N-{4-[3-fluoro-6-(pyrid-3-yl)-9H-pyrrolo[2,3-b:5,4-c']-dipyrid-4-yl]phenyl}-2-methylpropanamide]: the IC50 at Pim-1 is 1 to 100 nM; on Pim-2, 1000 to 5000 nM; at Pim-3, 100 to 1000 nM.
In the same order, the values of `Fc1cnc2[nH]c3cnc(-c4cccnc4)cc3c2c1-c1cccnc1` [Example 69, 3-fluoro-4,6-di(pyrid-3-yl)-9H-pyrrolo[2,3-b:5,4-c′]dipyridine] are 100 to 1000 nM, over 5000 nM and 100 to 1000 nM.
In the same order, the values of `CS(=O)(=O)Nc1ccccc1-c1c(F)cnc2[nH]c3cnc(-c4cccnc4)cc3c12` [Example 70, N-{2-[3-fluoro-6-(pyrid-3-yl)-9H-pyrrolo[2,3-b:5,4-c′]-dipyrid-4-yl]phenyl}-methanesulfonamide] are 1000 to 5000 nM, over 5000 nM and over 5000 nM.
In the same order, the values of `Fc1cnc2[nH]c3cnc(-c4cccnc4)cc3c2c1-c1cn[nH]c1` [Example 71, 3-fluoro-4-(1H-pyrazol-4-yl)-6-(pyrid-3-yl)-9H-pyrrolo[2,3-b:5,4-c′]-dipyridine] are 1 to 100 nM, 100 to 1000 nM and 100 to 1000 nM.
Regarding `CS(=O)(=O)c1cccc(-c2c(F)cnc3[nH]c4cnc(-c5cccnc5)cc4c23)c1` [Example 72, 3-fluoro-4-[3-(methylsulfonyl)phenyl]-6-(pyrid-3-yl)-9H-pyrrolo[2,3-b:5,4-c′]dipyridine], the IC50 at Pim-1 is 100 to 1000 nM; on Pim-2, over 5000 nM; at Pim-3 it was 1000 to 5000 nM.
In the same order, the values of `COc1ncc(-c2c(F)cnc3[nH]c4cnc(-c5cccnc5)cc4c23)cn1` [Example 73, 3-fluoro-4-(2-methoxypyrimidin-5-yl)-6-(pyrid-3-yl)-9H-pyrrolo[2;3-b:5,4-c′]dipyridine] are 100 to 1000 nM, over 5000 nM and 1000 to 5000 nM.
`Nc1ccc(-c2c(F)cnc3[nH]c4cnc(-c5cccnc5)cc4c23)cn1` [Example 74, 5-[3-fluoro-6-(pyrid-3-yl)-9H-pyrrolo[2,3-b,-c′]dipyrid-4-yl]pyrid-2-amine]: the values for the IC50 on Pim-1, on Pim-2 and on Pim-3 were 100 to 1000 nM, 1000 to 5000 nM and 100 to 1000 nM, respectively.
In the case of `CC(C)N1CCN(c2c(F)cnc3[nH]c4cnc(-c5cccnc5)cc4c23)CC1` [Example 75, 3-fluoro-4-[4-(propan-2-yl)-piperazin-1-yl]-6-(pyrid-3-yl)-9H-pyrrolo[2,3-b:5,4-c′]dipyridine], the IC50 at Pim-1 lay within 1 to 100 nM; at Pim-2 it was 1000 to 5000 nM; on Pim-3, 100 to 1000 nM.
In the same order, the values of `Fc1cnc2[nH]c3cnc(-c4cccnc4)cc3c2c1N1CCCCC1` [Example 76, 3-fluoro-4-(piperid-1-yl)-6-(pyrid-3-yl)-9H-pyrrolo[2,3-b:5,4-c′]dipyridine] are 1 to 100 nM, 100 to 1000 nM and 1 to 100 nM.
In the same order, the values of `CN1CCC(N2CCN(c3c(F)cnc4[nH]c5cnc(-c6cccnc6)cc5c34)CC2)CC1` [Example 77, 3-fluoro-4-[4-(1-methylpiperid-4-yl)piperazin-1-yl]-6-(pyrid-3-yl)-9H-pyrrolo-[2,3-b:5,4-c′]-dipyridine] are 100 to 1000 nM, over 5000 nM and 100 to 1000 nM.
In the same order, the values of `Fc1cnc2[nH]c3cnc(-c4cccnc4)cc3c2c1N1CCC(N2CCOCC2)CC1` [Example 78, 3-fluoro-4-[4-(morpholin-4-yl)piperid-1-yl]-6-(pyrid-3-yl)-9H-pyrrolo[2,3-b:5,4-c′]-dipyridine] are 1 to 100 nM, over 5000 nM and 100 to 1000 nM.
As to `CN1CCCN(c2c(F)cnc3[nH]c4cnc(-c5cccnc5)cc4c23)CC1` [Example 80, 3-fluoro-4-(4-methyl-1,4-diazepan-1-yl)-6-(pyrid-3-yl)-9H-pyrrolo[2,3-b:5,4-c′]dipyridine], the IC50 was 100 to 1000 nM at Pim-1, over 5000 nM on Pim-2 and 100 to 1000 nM on Pim-3.
Take `OCCN1CCN(c2c(F)cnc3[nH]c4cnc(-c5cccnc5)cc4c23)CC1` [Example 81, 2-{4-[3-fluoro-6-(pyrid-3-yl)-9H-pyrrolo[2,3-b:5,4-c′]dipyrid-4-yl]piperazin-1-yl}ethanol]: the IC50 lay within 1 to 100 nM at Pim-1, 1000 to 5000 nM at Pim-2 and 100 to 1000 nM on Pim-3.
In the same order, the values of `CN1CCN(C2CCN(c3c(F)cnc4[nH]c5cnc(-c6cccnc6)cc5c34)CC2)CC1` [Example 82, 3-fluoro-4-[4-(4-methylpiperazin-1-yl)piperid-1-yl]-6-(pyrid-3-yl)-9H-pyrrolo-[2,3-b:5,4-c′]-dipyridine] are 1 to 100 nM, 1000 to 5000 nM and 100 to 1000 nM.
Turning to `Fc1cnc2[nH]c3cnc(-c4cccnc4)cc3c2c1N1CCC(N2CCCCC2)CC1` [Example 83, 4-(1.4′-bipiperid-1′-yl)-3-fluoro-6-(pyrid-3-yl)-9H-pyrrolo[2,3-b:5,4-c′]-dipyridine], the IC50 on Pim-1 is 100 to 1000 nM; at Pim-2 it was over 5000 nM; on Pim-3, 100 to 1000 nM.
Regarding `CN(C)C1CCN(c2c(F)cnc3[nH]c4cnc(-c5cccnc5)cc4c23)CC1` [Example 84, 1-[3-fluoro-6-(pyrid-3-yl)-9H-pyrrolo[2,3-b:5,4-c′]dipyrid-4-yl]-N,N-dimethylpiperid-4-amine], the IC50 on Pim-1 lay in the range of 100 to 1000 nM; on Pim-2, 1000 to 5000 nM; at Pim-3, 100 to 1000 nM.
On to `Fc1cnc2[nH]c3cnc(-c4cccnc4)cc3c2c1N1CCC(N2CCCC2)CC1` [Example 85, 3-fluoro-6-(pyrid-3-yl)-4-[4-(pyrrolidin-1-yl)piperid-1-yl]-9H-pyrrolo[2,3-b:5,4-c′]-dipyridine], for which the IC50 at Pim-1 lay in the range of 1 to 100 nM; on Pim-2, 1000 to 5000 nM; on Pim-3, 100 to 1000 nM.
In the same order, the values of `Fc1cnc2[nH]c3cnc(-c4cccnc4)cc3c2c1N1CCN(CCCN2CCOCC2)CC1` [Example 87, 3-fluoro-4-{4-[3-(morpholin-4-yl)propyl]piperazin-1-yl}-6-(pyrid-3-yl)-9H-pyrrolo-[2,3-b:5,4-c′]-dipyridine] are 1 to 100 nM, 100 to 1000 nM and 1 to 100 nM.
In the same order, the values of `CC(C)(N)C#Cc1c(F)cnc2[nH]c3cnc(-c4cccnc4)cc3c12` [Example 90, 4-[3-fluoro-6-(pyrid-3-yl)-9H-pyrrolo[2,3-b:5,4-c′]dipyrid-4-yl]-2-methylbut-3-yn-2-amine] are 100 to 1000 nM, over 5000 nM and 100 to 1000 nM.
In the same order, the values of `CC(C)(O)C#Cc1c(F)cnc2[nH]c3cnc(-c4cccnc4)cc3c12` [Example 91, 4-[3-fluoro-6-(pyrid-3-yl)-9H-pyrrolo[2,3-b:5,4-c′]dipyrid-4-yl]-2-methylbut-3-yn-2-ol] are 1 to 100 nM, 1000 to 5000 nM and 1 to 100 nM.
As for `COc1c(F)cnc2[nH]c3cnc(-c4cccnc4)cc3c12` [Example 105, 3-fluoro-4-methoxy-6-(pyrid-3-yl)-9H-pyrrolo[2,3-b:5,4-c′]dipyridine], the figures for the IC50 on Pim-1, on Pim-2 and at Pim-3 were 1 to 100 nM, over 5000 nM and 100 to 1000 nM, respectively.
